We go through 23 molecules from ChEMBL document CHEMBL1667785, “Synthesis and structure-analgesic activity relationships of a novel series of monospirocyclopiperazinium salts (MSPZ)” (Bioorg Med Chem Lett, 2011).

Each structure is given as a SMILES string.

Neuronal acetylcholine receptor subunit beta-2, sequence (P17787 whole entry): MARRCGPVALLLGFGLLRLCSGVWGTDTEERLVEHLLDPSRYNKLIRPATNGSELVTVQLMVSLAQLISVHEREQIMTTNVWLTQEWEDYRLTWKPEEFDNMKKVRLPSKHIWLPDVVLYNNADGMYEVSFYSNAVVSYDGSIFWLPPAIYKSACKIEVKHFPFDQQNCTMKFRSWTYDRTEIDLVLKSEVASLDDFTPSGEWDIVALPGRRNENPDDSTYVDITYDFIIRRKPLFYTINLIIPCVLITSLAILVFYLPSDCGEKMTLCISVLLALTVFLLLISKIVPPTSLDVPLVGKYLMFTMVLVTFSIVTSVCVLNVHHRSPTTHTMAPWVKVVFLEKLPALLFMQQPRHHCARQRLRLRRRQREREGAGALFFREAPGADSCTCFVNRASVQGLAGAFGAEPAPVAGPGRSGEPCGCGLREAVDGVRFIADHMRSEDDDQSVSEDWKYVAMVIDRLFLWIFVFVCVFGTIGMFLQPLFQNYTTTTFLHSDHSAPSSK

One assay deals with Mus musculus. The assay is described as follows: Analgesic activity in mouse assessed as inhibition of acetic acid-induced writhing at 20 umol/kg, sc administered 30 mins before to acetic acid challenge measured after 5 mins for 10 mins relative to control. Type of assay: functional. Also noted: scale not given: the % may be the effect or the level left. (Writhing tests count abdominal constrictions after an irritant is injected.)
For `COc1ccc(N2CC[N+](C)(Cc3ccccc3)CC2)cc1.[Cl-]`, the Activity came to 43%.

On to `CS(=O)(=O)[O-].O=[N+]([O-])c1cccc(N2CC[N+]3(CCc4ccccc43)CC2)c1`, for which the Activity was 39%.

Consider `COc1ccc(N2CC[N+]3(CCOCC3)CC2)cc1.[Cl-]`, for which the Activity was determined as 41%.

In the case of `COc1ccc(N2CC[N+]3(CC2)CCN(c2ccc(OC)cc2)CC3)cc1.[Cl-]`, the Activity is given as 17%.

For `COc1ccc(N2CC[N+]3(CCN(CCc4ccccc4)CC3)CC2)cc1.[Cl-]`, the Activity came to 27%.

Consider `COc1ccccc1N1CC[N+]2(CCc3ccccc32)CC1.[Cl-]`, for which the Activity was 39%.

With `COc1cccc(N2CC[N+]3(CCc4ccccc43)CC2)c1.[Cl-]`, the Activity amounted to 37%.

For the molecule `COc1ccc(N2CC[N+]3(CCN(C(=O)c4ccccc4)CC3)CC2)cc1.[Cl-]`, the Activity is recorded as 50%.

For `Clc1ccccc1N1CC[N+]2(CCc3ccccc32)CC1.[Cl-]`, the Activity was found to be 44%.

With `COc1ccc(N2CC[N+]3(CCc4ccccc43)CC2)cc1.[Cl-]`, the Activity is recorded as 63%.

Take `COc1ccc(N2CC[N+]3(CC2)CC(C)OC(C)C3)cc1.[Cl-]` (centres undefined): the Activity is recorded as 21%.

For `CS(=O)(=O)[O-].O=[N+]([O-])c1ccc(N2CC[N+]3(CCc4ccccc43)CC2)cc1`, the Activity turned out to be 54%.

Regarding `COc1ccc(N2CC[N+](C)(C)CC2)cc1.[Cl-]`, the Activity is reported as 56%.

Regarding `COc1ccc(N2CC[N+]3(CCCC3)CC2)cc1.[Cl-]`, the Activity was 41%.

Consider `CC(=O)Nc1cccc(N2CC[N+]3(CCc4ccccc43)CC2)c1.[Cl-]`, for which the Activity stood at 39%.

As for `COc1ccc(N2CC[N+]3(CCN(C)CC3)CC2)cc1.[Cl-]`, the Activity is given as 32%.

In the case of `CCCC[N+]1(CCCC)CCN(c2ccc(OC)cc2)CC1.[Cl-]`, the Activity is 54%.

In the case of `COc1ccc(N2CC[N+]3(CCNCC3)CC2)cc1.[Cl-]`, the Activity worked out at 5%.

In the case of `COc1ccc(N2CC[N+]3(CCCCC3)CC2)cc1.[Cl-]`, the Activity is given as 26%.

In the case of `Oc1cccc(N2CC[N+]3(CCc4ccccc43)CC2)c1.[Cl-]`, the Activity is listed as 34%.

`[Cl-].c1ccc(N2CC[N+]3(CCc4ccccc43)CC2)cc1`: the Activity came out at 28%.

Take `COc1ccc(N2CC[N+]3(CCCCCC3)CC2)cc1.[Cl-]`: the Activity was found to be 28%.

The next assay addresses Neuronal acetylcholine receptor subunit beta-2 (Homo sapiens, UniProt P17787). The assay is described as follows: Binding affinity to beta2 nAChR.
As a reminder, the Ki is a dissociation constant, usually derived from enzyme kinetics or from competition with a known ligand. In turn, `CC(COc1ccc(/C=C\c2ccccc2)cc1)[N+](C)(C)C` (centres undefined) yielded a Ki of 39 µM.

The next assay deals with Neuronal acetylcholine receptor subunit alpha-7 (Homo sapiens, UniProt P36544). The assay is described as follows: Binding affinity to alpha7 nAChR.
Neuronal acetylcholine receptor subunit alpha-7, sequence (P36544 whole entry): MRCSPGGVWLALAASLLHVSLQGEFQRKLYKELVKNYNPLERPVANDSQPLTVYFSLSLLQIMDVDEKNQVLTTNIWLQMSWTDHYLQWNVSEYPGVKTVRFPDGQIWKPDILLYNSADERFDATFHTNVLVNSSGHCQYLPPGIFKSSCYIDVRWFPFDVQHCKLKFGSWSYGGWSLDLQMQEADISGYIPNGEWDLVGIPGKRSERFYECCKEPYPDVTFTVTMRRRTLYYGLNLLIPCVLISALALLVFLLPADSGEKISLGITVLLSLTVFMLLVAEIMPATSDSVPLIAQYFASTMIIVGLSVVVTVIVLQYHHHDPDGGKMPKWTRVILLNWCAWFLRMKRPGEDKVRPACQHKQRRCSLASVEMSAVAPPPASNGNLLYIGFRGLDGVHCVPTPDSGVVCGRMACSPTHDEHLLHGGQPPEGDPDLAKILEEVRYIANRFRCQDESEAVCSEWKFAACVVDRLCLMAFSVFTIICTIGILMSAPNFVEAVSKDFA
For the molecule `CC(COc1ccc(/C=C\c2ccccc2)cc1)[N+](C)(C)C` (centres undefined), the inhibition constant Ki stood at 0.057 µM.
